# Measured values published in patent US20230092005A1, “COMPOSITIONS AND METHODS FOR TREATING CANCER AND TUMOR” (OBLATO, INC., priority 2020, published 2023).
# Several values for one entry are separate records, joined by “and”; a condition that tells them apart may be missing. Identical values can stand only once.
# Tests used:
# [1] = test system: human A549 lung cancer xenografts; test: TUNEL staining of extracted A549 xenograft tumors (apoptosis counting and grading); format: in vivo, BALB/c Nude mouse; settings: for Apoptosis grade + : number of animals / Apoptosis grade ++ (moderate): number of animals / Apoptosis grade +++ (marked): number of animals / Apoptosis grade ++++ (severe): number of animals / Apoptosis grade ± (minimal): number of animals: N=10; for Apoptosis counting No. (group mean ± S.D.): TUNEL positive cells per 1 mm^2
# Description: Histopathological test: The extracted tumors were fixed in 10% neutral buffered formalin solution (10% neutral buffered formalin). After sectioning the tumors to a certain thickness (about 3 mm), those were subjected to the general preparation procedure, embedded in paraffin, cut into 4 to 5 μm size, and tissue sections were stained with Hematoxylin and Eosin (H&E) and TUNEL. IHC (Immunohistochemistry) slides, cut into 4 to 5 μm size, were produced and sent to the sponsor (Negative Control Group (G1), Test substance 2 (G3, Animal ID Nos.: 1301, 1302, 1303, 1307, 1310), Test substance 3 (G4, Animal ID Nos.: 1401, 1402, 1404, 1408, 1409)). Determination of TUNEL staining results: After histological examination of the entire cross-section of the tumor for grading (±, +, ++, +++, ++++) of apoptosis, the nucleated brown stained cells were read as […] was counted. The apoptosis of the tumor was determined by the number of positive cells per […] (1 mm^2). The apoptosis of the tumor was determined by calculating the average number of positive cells and graded into the corresponding severity. The number of positive cells in which apoptosis occurred was determined by counting the number of positive cells per unit area (1 mm^2). Histopathological test (Table 7, FIGS. 7-11): The extracted fixed tumor was cut to a certain thickness (about 3 mm), then subjected to general tissue treatment, paraffin-embedded to produce blocks, and tissue sections of 4 to 5 μm in size were prepared. Then, Hematoxylin & Eosin (H&E) staining and TUNEL staining were performed.
# [2] = test system: human A549 lung cancer xenografts; test: Hematoxylin & Eosin (H&E) staining of extracted A549 xenograft tumors (necrosis grading); format: in vivo, BALB/c Nude mouse; settings: N=10
# Description: Histopathological test: The extracted tumors were fixed in 10% neutral buffered formalin solution (10% neutral buffered formalin). After sectioning the tumors to a certain thickness (about 3 mm), those were subjected to the general preparation procedure, embedded in paraffin, cut into 4 to 5 μm size, and tissue sections were stained with Hematoxylin and Eosin (H&E) and TUNEL. IHC (Immunohistochemistry) slides, cut into 4 to 5 μm size, were produced and sent to the sponsor (Negative Control Group (G1), Test substance 2 (G3, Animal ID Nos.: 1301, 1302, 1303, 1307, 1310), Test substance 3 (G4, Animal ID Nos.: 1401, 1402, 1404, 1408, 1409)). Determination of Hematoxylin & Eosin (H&E) staining results: Necrosis of tumors was assessed by grading (±, +, ++, +++, ++++) the extent of necrosis in the whole section of the tumor. Necrosis was evaluated by morphological changes such as collapse or disappearance of the nucleus and eosinophilic change of cytoplasm. The extent of tumor necrosis was determined by the percentage of the following necrosis area. Histopathological test (Table 7, FIGS. 7-11): The extracted fixed tumor was cut to a certain thickness (about 3 mm), then subjected to general tissue treatment, paraffin-embedded to produce blocks, and tissue sections of 4 to 5 μm in size were prepared. Then, Hematoxylin & Eosin (H&E) staining and TUNEL staining were performed.
smiles,measurement,setting,value
"CC(C)(C)/[N+]([O-])=C/c1ccc(S(=O)(=O)O)cc1S(=O)(=O)O [OKN-007, Disodium 4-[(Z)-[tert-butyl(oxido)azaniumylidene]methyl]benzene-1,3-disulfonate]",Apoptosis grade + : number of animals,"[1]; G2, 150 mg/kg P.O.",1
same,Apoptosis grade ++ (moderate): number of animals,"[1]; G2, 150 mg/kg P.O.",0
same,Apoptosis grade +++ (marked): number of animals,"[1]; G2, 150 mg/kg P.O.",0
same,Apoptosis grade ++++ (severe): number of animals,"[1]; G2, 150 mg/kg P.O.",0
same,Apoptosis grade ± (minimal): number of animals,"[1]; G2, 150 mg/kg P.O.",9
same,Apoptosis counting No. (group mean ± S.D.),"[1]; G2, 150 mg/kg P.O.",79.6±29.8 No./mm^2 and 79.6 ± 20.8 No./mm^2
same,Apoptosis grade + : number of animals,"[1]; G3, 300 mg/kg P.O.",2
same,Apoptosis grade ++ (moderate): number of animals,"[1]; G3, 300 mg/kg P.O.",0
same,Apoptosis grade +++ (marked): number of animals,"[1]; G3, 300 mg/kg P.O.",0
same,Apoptosis grade ++++ (severe): number of animals,"[1]; G3, 300 mg/kg P.O.",0
same,Apoptosis grade ± (minimal): number of animals,"[1]; G3, 300 mg/kg P.O.",8
same,Apoptosis counting No. (group mean ± S.D.),"[1]; G3, 300 mg/kg P.O.",91.5±32.2 No./mm^2
same,Apoptosis grade + : number of animals,"[1]; G4, 600 mg/kg P.O.",5
same,Apoptosis grade ++ (moderate): number of animals,"[1]; G4, 600 mg/kg P.O.",2
same,Apoptosis grade +++ (marked): number of animals,"[1]; G4, 600 mg/kg P.O.",0
same,Apoptosis grade ++++ (severe): number of animals,"[1]; G4, 600 mg/kg P.O.",0
same,Apoptosis grade ± (minimal): number of animals,"[1]; G4, 600 mg/kg P.O.",3
same,Apoptosis counting No. (group mean ± S.D.),"[1]; G4, 600 mg/kg P.O.",149.9±59.5 No./mm^2
same,Necrosis grade + : number of animals,"[2]; G2, 150 mg/kg P.O.",3
same,Necrosis grade ++ (moderate): number of animals,"[2]; G2, 150 mg/kg P.O.",2
same,Necrosis grade +++ (marked): number of animals,"[2]; G2, 150 mg/kg P.O.",0
same,Necrosis grade ++++ (severe): number of animals,"[2]; G2, 150 mg/kg P.O.",0
same,Necrosis grade ± (minimal): number of animals,"[2]; G2, 150 mg/kg P.O.",5
same,Necrosis grade + : number of animals,"[2]; G3, 300 mg/kg P.O.",2
same,Necrosis grade ++ (moderate): number of animals,"[2]; G3, 300 mg/kg P.O.",1
same,Necrosis grade +++ (marked): number of animals,"[2]; G3, 300 mg/kg P.O.",0
same,Necrosis grade ++++ (severe): number of animals,"[2]; G3, 300 mg/kg P.O.",0
same,Necrosis grade ± (minimal): number of animals,"[2]; G3, 300 mg/kg P.O.",7
same,Necrosis grade + : number of animals,"[2]; G4, 600 mg/kg P.O.",2
same,Necrosis grade ++ (moderate): number of animals,"[2]; G4, 600 mg/kg P.O.",2
same,Necrosis grade +++ (marked): number of animals,"[2]; G4, 600 mg/kg P.O.",0
same,Necrosis grade ++++ (severe): number of animals,"[2]; G4, 600 mg/kg P.O.",0
same,Necrosis grade ± (minimal): number of animals,"[2]; G4, 600 mg/kg P.O.",6
